Assay results taken from patent US20250275540A1, “USE OF PROTOPORPHYRINOGEN OXIDASE” (BEIJING DABEINONG BIOTECHNOLOGY CO., LTD., priority 2022, published 2025).

Test system: transgenic maize plants
Experiment: Detection of the herbicide tolerance of the transgenic maize plants
Format: in vivo
Settings: for The grade of pesticide damage/plant: 0 / The grade of pesticide damage/plant: 1 / The grade of pesticide damage/plant: 2 / The grade of pesticide damage/plant: 3: 7 DAT
Excerpt: The transformed Arabidopsis thaliana T1 plants were initially selected using glufosinate herbicide. The Arabidopsis thaliana T1 plants (PPOA-01) into which the PPOA-01 nucleotide sequence was introduced, the Arabidopsis thaliana T1 plants (PPOB-01) into which the PPOB-01 nucleotide sequence was introduced, the Arabidopsis thaliana T1 plants (PPOC-01) into which the PPOC-01 nucleotide sequence was introduced, the Arabidopsis thaliana T1 plants (PPOD-01) into which the PPOD-01 nucleotide sequence was introduced, the Arabidopsis thaliana T1 plants (PPOE-01) into which the PPOE-01 nucleotide sequence was introduced, the Arabidopsis thaliana T1 plants (PPOF-01) into which the PPOF-01 nucleotide sequence was introduced, the Arabidopsis thaliana T1 plants (PPO-AP-01) into which the PPO-AP-01 nucleotide sequence was introduced, and the Arabidopsis thaliana T1 plants (control vector) into which the control vector was introduced, the wild-type Arabidopsis thaliana plants (CK) (with 24 plants being included in each genotype) (18 days after sowing) were sprayed with saflufenacil at three concentrations (25 g ai/ha (one-fold field concentration, 1×), 100 g ai/ha (four-fold field concentration, 4×), and 0 g ai/ha (water, 0×)), oxyfluorfen at three concentrations (180 g ai/ha (one-fold field concentration, 1×), 720 g ai/ha (four-fold field concentration, 4×), and 0 g ai/ha (water, 0×)), and flumioxazin at three concentrations (60 g ai/ha (one-fold field concentration, 1×), 240 g ai/ha (four-fold field concentration, 4×), and 0 g ai/ha (water, 0×) to determine the tolerance of Arabidopsis thaliana to the herbicides. After 7 days of spraying (7 DAT), the damage level of each plant caused by the herbicide was evaluated according to the average of the damage levels (%) of plants (the average of the damage levels (%) of plants=the injured leaf area/the total leaf area×100%), i.e., the grade of pesticide damage: grade 0 means that the growth status of plants is essentially consistent with those sprayed with the blank solvent (water); grade 1 means that the average of the damage levels of plants is less than 10%; grade 2 means that the average of the damage levels of plants is greater than 10%; and grade 3 means that the average of the damage levels of plants is 100%. The plants having a growth status falling within grades 0 and 1 are classified as highly resistant plants; those having a growth status falling within grade 2 are classified as poorly resistant plants; and those having a growth status falling within grade 3 are classified as non-resistant plants.
The maize plants into which the PPOA-02 nucleotide sequence was introduced, the maize plants into which the PPOB-02 nucleotide sequence was introduced, the maize plants into which the PPOC-02 nucleotide sequence was introduced, the maize plants into which the PPOD-02 nucleotide sequence was introduced, the maize plants into which the PPOE-02 nucleotide sequence was introduced, the maize plants into which the PPOF-02 nucleotide sequence was introduced, the maize plants into which the PPO-AP-02 nucleotide sequence was introduced, the maize plants (control vector) into which the control vector was introduced, and the wild-type maize plants (CK) (with 16 plants being included in each genotype) (18 days after sowing) were taken and sprayed with saflufenacil at three concentrations (50 g ai/ha (two-fold field concentration, 2×), 100 g ai/ha (four-fold field concentration, 4×), and 0 g ai/ha (water, 0×)), oxyfluorfen at three concentrations (360 g ai/ha (two-fold field concentration, 2×), 720 g ai/ha (four-fold field concentration, 4×), and 0 g ai/ha (water, 0×), and flumioxazin at three concentrations (120 g ai/ha (two-fold field concentration, 2×), 240 g ai/ha (four-fold field concentration, 4×), and 0 g ai/ha (water, 0×) to determine the tolerance of maize plants to the herbicides. […]

[1] = genotype Control vector, 120 g ai/ha
[2] = genotype Control vector, 240 g ai/ha
[3] = genotype PPO-AP-02, 120 g ai/ha
[4] = genotype PPO-AP-02, 240 g ai/ha

## C#CCN1C(=O)COc2cc(F)c(N3C(=O)C4=C(CCCC4)C3=O)cc21 [flumioxazin, 2-[7-fluoro-3,4-dihydro-3-oxo-4-(2-propynyl)-2H-1,4-benzoxazin-6-yl]-4,5,6,7-tetrahydro-1H-isoindole-1,3(2H)-dione]
Genotype CK, 120 g ai/ha
  The grade of pesticide damage/plant: 0: 0 plant
  The grade of pesticide damage/plant: 1: 0 plant
  The grade of pesticide damage/plant: 2: 0 plant
  The grade of pesticide damage/plant: 3: 16 plant
Genotype CK, 240 g ai/ha
  The grade of pesticide damage/plant: 0: 0 plant
  The grade of pesticide damage/plant: 1: 0 plant
  The grade of pesticide damage/plant: 2: 0 plant
  The grade of pesticide damage/plant: 3: 16 plant
[1]
  The grade of pesticide damage/plant: 0: 0 plant
  The grade of pesticide damage/plant: 1: 0 plant
  The grade of pesticide damage/plant: 2: 0 plant
  The grade of pesticide damage/plant: 3: 16 plant
[2]
  The grade of pesticide damage/plant: 0: 0 plant
  The grade of pesticide damage/plant: 1: 0 plant
  The grade of pesticide damage/plant: 2: 0 plant
  The grade of pesticide damage/plant: 3: 16 plant
[3]
  The grade of pesticide damage/plant: 0: 0 plant
  The grade of pesticide damage/plant: 1: 0 plant
  The grade of pesticide damage/plant: 2: 3 plant
  The grade of pesticide damage/plant: 3: 13 plant
[4]
  The grade of pesticide damage/plant: 0: 0 plant
  The grade of pesticide damage/plant: 1: 0 plant
  The grade of pesticide damage/plant: 2: 0 plant
  The grade of pesticide damage/plant: 3: 16 plant
Genotype PPO-AP-02, at different concentrations
  tolerance to the herbicide (in words): basically no tolerance
Genotype PPOA-02, 120 g ai/ha
  The grade of pesticide damage/plant: 0: 16 plant
  The grade of pesticide damage/plant: 1: 0 plant
  The grade of pesticide damage/plant: 2: 0 plant
  The grade of pesticide damage/plant: 3: 0 plant
Genotype PPOA-02, 240 g ai/ha
  The grade of pesticide damage/plant: 0: 16 plant
  The grade of pesticide damage/plant: 1: 0 plant
  The grade of pesticide damage/plant: 2: 0 plant
  The grade of pesticide damage/plant: 3: 0 plant
Genotype PPOB-02, 120 g ai/ha
  The grade of pesticide damage/plant: 0: 16 plant
  The grade of pesticide damage/plant: 1: 0 plant
  The grade of pesticide damage/plant: 2: 0 plant
  The grade of pesticide damage/plant: 3: 0 plant
Genotype PPOB-02, 240 g ai/ha
  The grade of pesticide damage/plant: 0: 16 plant
  The grade of pesticide damage/plant: 1: 0 plant
  The grade of pesticide damage/plant: 2: 0 plant
  The grade of pesticide damage/plant: 3: 0 plant
Genotype PPOC-02, 120 g ai/ha
  The grade of pesticide damage/plant: 0: 16 plant
  The grade of pesticide damage/plant: 1: 0 plant
  The grade of pesticide damage/plant: 2: 0 plant
  The grade of pesticide damage/plant: 3: 0 plant
Genotype PPOC-02, 240 g ai/ha
  The grade of pesticide damage/plant: 0: 16 plant
  The grade of pesticide damage/plant: 1: 0 plant
  The grade of pesticide damage/plant: 2: 0 plant
  The grade of pesticide damage/plant: 3: 0 plant
Genotype PPOD-02, 120 g ai/ha
  The grade of pesticide damage/plant: 0: 16 plant
  The grade of pesticide damage/plant: 1: 0 plant
  The grade of pesticide damage/plant: 2: 0 plant
  The grade of pesticide damage/plant: 3: 0 plant
Genotype PPOD-02, 240 g ai/ha
  The grade of pesticide damage/plant: 0: 16 plant
  The grade of pesticide damage/plant: 1: 0 plant
  The grade of pesticide damage/plant: 2: 0 plant
  The grade of pesticide damage/plant: 3: 0 plant
Genotype PPOE-02, 120 g ai/ha
  The grade of pesticide damage/plant: 0: 16 plant
  The grade of pesticide damage/plant: 1: 0 plant
  The grade of pesticide damage/plant: 2: 0 plant
  The grade of pesticide damage/plant: 3: 0 plant
Genotype PPOE-02, 240 g ai/ha
  The grade of pesticide damage/plant: 0: 16 plant
  The grade of pesticide damage/plant: 1: 0 plant
  The grade of pesticide damage/plant: 2: 0 plant
  The grade of pesticide damage/plant: 3: 0 plant
Genotype PPOF-02, 120 g ai/ha
  The grade of pesticide damage/plant: 0: 16 plant
  The grade of pesticide damage/plant: 1: 0 plant
  The grade of pesticide damage/plant: 2: 0 plant
  The grade of pesticide damage/plant: 3: 0 plant
Genotype PPOF-02, 240 g ai/ha
  The grade of pesticide damage/plant: 0: 16 plant
  The grade of pesticide damage/plant: 1: 0 plant
  The grade of pesticide damage/plant: 2: 0 plant
  The grade of pesticide damage/plant: 3: 0 plant
Genotypes PPOA-02 to PPOF-02, at different concentrations
  tolerance to the herbicide (in words): high-resistant tolerance
